Data published in patent US11596639B2, “Substituted indole Mcl-1 inhibitors” (Vanderbilt University, priority 2016, dated 2023).
Where two headings read alike, the source gives them in different places.

Tests used:
[1] = test system: H929 human cancer cell lines; experiment: Cellular viability / proliferation (Cell TiterGlo, 72 h); format: cell-based
In short: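 Compounds were added as 2-fold serial dilutions from 50 μM (final DMSO <1%) to H929 cells seeded 1,000 per well in 10% FBS medium one day earlier.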

Mcl-1 = Mcl-1 (Homo sapiens (Human), UniProt Q07820); experiment: Fluorescence polarization anisotropy (FPA) competition assay, FITC-Bak or FITC-Bim BH3 peptide; format: binding; details: read-out: Ki for Inhibition of Mcl-1 by FPA assay
[2] = Homo sapiens, NCI-H929, 72 h, read-out: GI50 on cellular proliferation of H929 human cancer cell lines, H929 cells, 72 h, Cell TiterGlo, 10% FBS
[3] = H929 cells, 72 h, Cell TiterGlo, 10% FBS, read-out: GI50 on cellular proliferation of H929 human cancer cell lines

Chain of Mcl-1 (Q07820 172-327): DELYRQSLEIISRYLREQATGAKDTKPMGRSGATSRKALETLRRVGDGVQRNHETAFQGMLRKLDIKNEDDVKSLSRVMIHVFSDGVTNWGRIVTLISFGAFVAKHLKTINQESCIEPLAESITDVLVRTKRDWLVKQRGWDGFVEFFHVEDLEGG

Compound	GI50 [1, 2]	Ki (Mcl-1)	GI50 [1, 3]	GI50 ([1]; read-out: GI50 on cellular proliferation of H929 human cancer cell lines, H929 cells, 72 h, Cell TiterGlo, 10% FBS)
COCCn1ncc2c(C(=O)O)cc(N3CCCn4c(c(CCCOc5cc(C)c(Cl)c(C)c5)c5ccc(Cl)c(-c6c(C)nn(C)c6C)c54)C3=O)cc21 [Example 82, 6-[8-Chloro-11-[3-(4-chloro-3,5-dimethyl-phenoxy)propyl]-1-oxo-7-(1,3,5-trimethylpyrazol-4-yl)-4,5-dihydro-3H-[1,4]diazepino[1,2-a]indol-2-yl]-1-(2-methoxyethyl)indazole-4-carboxylic acid]	4800 nM	< 1 nM	–	–
COc1cc(N2C[C@@H](C)n3c(c(CCCOc4cc(C)c(Cl)c(C)c4)c4ccc(Cl)c(-c5c(C)nn(C)c5C)c43)C2=O)c2c(c1)c(C(=O)O)cn2C [Example 436, (R)-7-(7-Chloro-10-(3-(4-chloro-3,5-dimethylphenoxy)propyl)-4-methyl-1-oxo-6-(1,3,5-trimethyl-1H-pyrazol-4-yl)-3,4-dihydropyrazino[1,2-a]indol-2(1H)-yl)-5-methoxy-1-methyl-1H-indole-3-carboxylic acid]	510 nM	2.1 nM	–	–
CC[C@@H]1Cn2c(c(CCCOc3cc(C)c(Cl)c(C)c3)c3ccc(Cl)c(-c4c(C)nn(C)c4C)c32)C(=O)N1c1cccc(C(=O)O)c1 [Example 21, (R)-3-(7-chloro-10-(3-(4-chloro-3,5-dimethylphenoxy)propyl)-3-ethyl-t-oxo-6-(1,3,5-trimethyl-1H-pyrazol-4-yl)-3,4-dihydropyrazino[1,2-a]indol-2(1H)-yl)benzoic acid]	–	2.3 nM	4900 nM	–
Cc1ccnc(Cn2c(C(=O)O)cc3cccc(N4C[C@@H](C)n5c(c(CCCOc6cc(C)c(Cl)c(C)c6)c6ccc(Cl)c(-c7c(C)nn(C)c7C)c65)C4=O)c32)c1 [Example 371, (R)-7-(7-Chloro-10-(3-(4-chloro-3,5-dimethylphenoxy)propyl)-4-methyl-1-oxo-6-(1,3,5-trimethyl-1H-pyrazol-4-yl)-3,4-dihydropyrazino[1,2-a]indol-2(1H)-yl)-1-((4-methylpyridin-2-yl)methyl)-1H-indole-2-carboxylic acid]	300 nM	< 1 nM	–	–
Cc1cc(OCCCc2c3n(c4c(-c5c(C)nn(C)c5C)c(Cl)ccc24)[C@H](C)CN(c2cccc4c2c(C(=O)O)nn4C)C3=O)cc(C)c1Cl [Example 126, 4-[(4R)-7-chloro-10-[3-(4-chloro-3,5-dimethyl-phenoxy)propyl]-4-methyl-1-oxo-6-(1,3,5-trimethylpyrazol-4-yl)-3,4-dihydropyrazino[1,2-a]indol-2-yl]-1-methyl-indazole-3-carboxylic acid]	–	< 1 nM	–	5100 nM
Cc1cc(OCCCc2c3n(c4c(-c5c(C)nn(C)c5C)c(Cl)ccc24)[C@H](C)CN(c2cccc4c2ccn4CC(=O)O)C3=O)cc(C)c1Cl [Example 134, (R)-2-(4-(7-Chloro-10-(3-(4-chloro-3,5-dimethylphenoxy)propyl)-4-methyl-1-oxo-6-(1,3,5-trimethyl-1H-pyrazol-4-yl)-3,4-dihydropyrazino[1,2-a]indol-2(1H)-yl)-1H-indol-1-yl)acetic acid]	11000 nM	< 1 nM	–	–
Cc1cc(OCCCc2c3n(c4c(-c5c(C)ncnc5C)c(Cl)ccc24)CCCN(c2cc(C(=O)O)cc4c2OCCO4)C3=O)cc(C)c1Cl [Example 154, 5-[8-Chloro-11-[3-(4-chloro-3,5-dimethyl-phenoxy)propyl]-7-(4,6-dimethylpyrimidin-5-yl)-1-oxo-4,5-dihydro-3H-[1,4]diazepino[1,2-a]indol-2-yl]-2,3-dihydro-1,4-benzodioxine-7-carboxylic acid]	1300 nM	< 1 nM	–	–
Cc1cc(OCCCc2c3n(c4c(-c5c(C)nn(C)c5C)c(Cl)ccc24)[C@H](C)CN(c2ccc4nc(C(=O)O)ccc4c2)C3=O)cc(C)c1Cl [Example 102, (R)-6-(7-Chloro-10-(3-(4-chloro-3,5-dimethylphenoxy)propyl)-4-methyl-1-oxo-6-(1,3,5-trimethyl-1H-pyrazol-4-yl)-3,4-dihydropyrazino[1,2-a]indol-2(1H)-yl)quinoline-2-carboxylic acid]	4900 nM	1.5 nM	–	–
Cc1cc(OCCCc2c3n(c4c(-c5c(C)nn(C)c5C)c(Cl)ccc24)[C@H](C)CN(c2cc(O)cc4c2cc(C(=O)O)n4C)C3=O)cc(C)c1Cl [Example 305, (M, R)-4-(7-chloro-10-(3-(4-chloro-3,5-dimethylphenoxy)propyl)-4-methyl-1-oxo-6-(1,3,5-trimethyl-1H-pyrazol-4-yl)-3,4-dihydropyrazino[1,2-a]indol-2(1H)-yl)-6-hydroxy-1-methyl-1H-indole-2-carboxylic acid]	–	< 1 nM	6200 nM	–
Cc1cc(OCCCc2c3n(c4c(-c5c(C)nn(C)c5C)c(Cl)ccc24)[C@H](C)CN(c2cc(C(C)C)cc4cc(C(=O)O)n(C)c24)C3=O)cc(C)c1Cl [Example 356, (R)-7-(7-Chloro-10-(3-(4-chloro-3,5-dimethylphenoxy)propyl)-4-methyl-1-oxo-6-(1,3,5-trimethyl-1H-pyrazol-4-yl)-3,4-dihydropyrazino[1,2-a]indol-2(1H)-yl)-5-isopropyl-1-methyl-1H-indole-2-carboxylic acid]	650 nM	1.9 nM	–	–
CCn1cc(N2C[C@@H](C)n3c(c(CCCOc4cc(C)c(Cl)c(C)c4)c4ccc(Cl)c(-c5c(C)nn(C)c5C)c43)C2=O)c2cccc(C(=O)O)c21 [Example 83, (R)-3-(7-Chloro-10-(3-(4-chloro-3,5-dimethylphenoxy)propyl)-4-methyl-1-oxo-6-(1,3,5-trimethyl-1H-pyrazol-4-yl)-3,4-dihydropyrazino[1,2-a]indol-2(1H)-yl)-1-ethyl-1H-indole-7-carboxylic acid]	1100 nM	< 1 nM	–	–
CCn1ncc2cc(C(=O)O)cc(N3CCCn4c(c(CCCOc5cc(C)c(Cl)c(C)c5)c5ccc(Cl)c(-c6c(C)nn(C)c6C)c54)C3=O)c21 [Example 122, 7-(8-Chloro-11-(3-(4-chloro-3,5-dimethylphenoxy)propyl)-1-oxo-7-(1,3,5-trimethyl-1H-pyrazol-4-yl)-4,5-dihydro-1H-[1,4]diazepino[1,2-a]indol-2(3H)-yl)-1-ethyl-1H-indazole-5-carboxylic acid]	11000 nM	2.2 nM	–	–
Cc1cc(OCCCc2c3n(c4c(-c5c(C)nn(CCN6CCCC6)c5C)c(Cl)ccc24)[C@H](C)CN(c2cn(C)c4cc(C(=O)O)ccc24)C3=O)cc(C)c1Cl [Example 306, (R)-3-(7-chloro-10-(3-(4-chloro-3,5-dimethylphenoxy)propyl)-6-(3,5-dimethyl-1-(2-(pyrrolidin-1-yl)ethyl)-1H-pyrazol-4-yl)-4-methyl-1-oxo-3,4-dihydropyrazino[1,2-a]indol-2(1H)-yl)-1-methyl-1H-indole-6-carboxylic acid]	600 nM	1.3 nM	–	–
Cc1cc(OCCCc2c3n(c4c(-c5c(C)nn(C)c5C)c(Cl)ccc24)CCCN(c2cn(CCN4CCOCC4)c4cc(C(=O)O)ccc24)C3=O)cc(C)c1Cl [Example 89, 3-(8-Chloro-11-(3-(4-chloro-3,5-dimethylphenoxy)propyl)-1-oxo-7-(1,3,5-trimethyl-1H-pyrazol-4-yl)-4,5-dihydro-1H-[1,4]diazepino[1,2-a]indol-2(3H)-yl)-1-(2-morpholinoethyl)-1H-indole-6-carboxylic acid]	1300 nM	< 1 nM	–	–
Cc1cc(OCCCc2c3n(c4c(-c5c(C)nn(C)c5C)c(Cl)ccc24)[C@H](C)CN(c2nc(C(=O)O)c4ccccn24)C3=O)cc(C)c1Cl [Example 111, (R)-3-(7-chloro-10-(3-(4-chloro-3,5-dimethylphenoxy)propyl)-4-methyl-1-oxo-6-(1,3,5-trimethyl-1H-pyrazol-4-yl)-3,4-dihydropyrazino[1,2-a]indol-2(1H)-yl)imidazo[1,5-a]pyridine-1-carboxylic acid]	2600 nM	< 1 nM	–	–
COCCn1c(C(=O)O)cc2cc(C(C)C)cc(N3C[C@@H](C)n4c(c(CCCOc5cc(C)c(Cl)c(C)c5)c5ccc(Cl)c(-c6c(C)nn(C)c6C)c54)C3=O)c21 [Example 364, (R)-7-(7-Chloro-10-(3-(4-chloro-3,5-dimethylphenoxy)propyl)-4-methyl-1-oxo-6-(1,3,5-trimethyl-1H-pyrazol-4-yl)-3,4-dihydropyrazino[1,2-a]indol-2(1H)-yl)-5-isopropyl-1-(2-methoxyethyl)-1H-indole-2-carboxylic acid]	540 nM	1 nM	–	–
Cc1cc(OCCCc2c3n(c4c(-c5c(C)nn(C)c5C)c(Cl)ccc24)[C@H](C)CN(c2ccnc4ccc(-c5nnn(C)n5)cc24)C3=O)cc(C)c1Cl [Example 425, (R)-7-Chloro-10-(3-(4-chloro-3,5-dimethylphenoxy)propyl)-4-methyl-2-(6-(2-methyl-2H-tetrazol-5-yl)quinolin-4-yl)-6-(1,3,5-trimethyl-1H-pyrazol-4-yl)-3,4-dihydropyrazino[1,2-a]indol-1(2H)-one]	1400 nM	1.8 nM	–	–
Cc1cc(OCCCc2c3n(c4c(-c5c(C)nn(C)c5C)c(Cl)ccc24)[C@H](C)CN(c2cn(C)c4ccc(-c5cnccn5)cc24)C3=O)cc(C)c1Cl [Example 430, (R)-7-Chloro-10-(3-(4-chloro-3,5-dimethylphenoxy)propyl)-4-methyl-2-(1-methyl-5-(pyrazin-2-yl)-1H-indol-3-yl)-6-(1,3,5-trimethyl-1H-pyrazol-4-yl)-3,4-dihydropyrazino[1,2-a]indol-1(2H)-one]	1400 nM	1.9 nM	–	–
Cc1cc(OCCCc2c3n(c4c(-c5c(C)nn(C)c5C)c(Cl)ccc24)[C@H](C)CN(c2ccc(Cl)c4c(C(=O)O)cn(C)c24)C3=O)cc(C)c1Cl [Example 435, (R)-4-Chloro-7-(7-chloro-10-(3-(4-chloro-3,5-dimethylphenoxy)propyl)-4-methyl-1-oxo-6-(1,3,5-trimethyl-1H-pyrazol-4-yl)-3,4-dihydropyrazino[1,2-a]indol-2(1H)-yl)-1-methyl-1H-indole-3-carboxylic acid]	570 nM	< 1 nM	–	–
